Measured values from patent publication US6737383B1, “Herbicidal oxadiazolidines” (priority 1999, dated 2004).

How the values were obtained:
bedstraw = test: Test B pre/postemergence bedstraw; type: in vivo, Galium aparine
Method in brief: (§1)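 Herbicidal effect was estimated by eye on a ten-point control scale after plants spent twelve to sixteen days in a greenhouse following soil or foliar treatment. Foliar sprays targeted plants at one to four leaves; all doses were formulated in a non-phytotoxic solvent with surfactant.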

blackgrass = test: Test B pre/postemergence blackgrass; type: in vivo, Alopecurus myosuroides
Method in brief: as §1

surinam grass = test: Test B pre/postemergence surinam grass; type: in vivo, Brachiaria decumbens
Method in brief: as §1

corn = test: Test B pre/postemergence corn; type: in vivo, Zea mays
Method in brief: as §1

crabgrass = test: Test B pre/postemergence crabgrass; type: in vivo, Digitaria sanguinalis
Method in brief: as §1

giant foxtail = test: Test B pre/postemergence giant foxtail; type: in vivo, Setaria faberii
Method in brief: as §1

rape = test: Test B pre/postemergence rape; type: in vivo, Brassica napus
Method in brief: as §1

sugar beet = test: Test B pre/postemergence sugar beet; type: in vivo, Beta vulgaris
Method in brief: as §1

velvetleaf = test: Test B pre/postemergence velvetleaf; type: in vivo, Abutilon theophrasti
Method in brief: as §1

wheat = test: Test B pre/postemergence wheat; type: in vivo, Triticum aestivum
Method in brief: as §1

wild oat = test: Test B pre/postemergence wild oat; type: in vivo, Avena fatua
Method in brief: as §1

purple nutsedge = test: Test B pre/postemergence purple nutsedge; type: in vivo, Cyperus rotundus
Method in brief: as §1

rice = test: Test B flood test rice; type: in vivo, Oryza sativa
Method in brief: (§2)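 Each value is a visual injury score relative to controls, with 10 meaning complete control and 0 no effect. Evaluation took place twelve to sixteen days after the 2-leaf-stage plants were treated and kept in the greenhouse.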

smallflower flatsedge = test: Test B flood test smallflower flatsedge; type: in vivo, Cyperus difformis
Method in brief: as §2

duck salad = test: Test B flood test duck salad; type: in vivo, Heteranthera limosa
Method in brief: as §2

bamyardgrass = test: Test B flood test barnyardgrass; type: in vivo, Echinochloa crus-galli
Method in brief: as §2

[1] = Postemergence, Rate 62 g/ha, scale 0 to 10, 0 is no effect, 10 is complete control
[2] = Postemergence, Rate 250 g/ha, scale 0 to 10, 0 no effect, 10 complete control
[3] = Preemergence, Rate 62 g/ha, scale 0 to 10 (0 no effect, 10 complete control)
[4] = Preemergence, Rate 125 g/ha, scale 0 to 10 (0 no effect, 10 complete control)
[5] = Preemergence, Rate 250 g/ha, scale of 0 to 10 where 0 is no effect and 10 is complete control
[6] = Preemergence, Rate 500 g/ha, scale 0 (no effect) to 10 (complete control)
[7] = Rate 125 g/ha, Postemergence, scale 0 to 10, 0 no effect, 10 complete control
[8] = Rate 500 g/ha, Postemergence, scale 0 to 10, 0 no effect, 10 complete control
[9] = Rate 125 g/ha, Postemergence section (flood test species), scale 0 to 10, 0 no effect, 10 complete control
[10] = Rate 500 g/ha, listed under Postemergence (flood test species), scale 0 to 10, 0 no effect, 10 complete control
[11] = flood test, listed under Postemergence, Rate 250 g/ha, scale 0 to 10, 0 no effect, 10 complete control

COc1cccc(C)c1-n1c(=O)on(C(=O)N(c2ccccc2)C(C)C)c1=O [Compound 73]
10: Giant foxtail plant response rating (giant foxtail; [6])
9: Crabgrass plant response rating (crabgrass; [6]) | Plant response rating, Giant foxtail (giant foxtail; [5])
2: Blackgrass plant response rating (blackgrass; [8]) | Crabgrass plant response rating (crabgrass; [2]) | Giant foxtail plant response rating (giant foxtail; [2]) | Giant foxtail plant response rating (giant foxtail; [3]) | Wheat plant response rating (wheat; [8]) | Wild oats plant response rating (wild oat; [2])
8: Plant response rating, Crabgrass (crabgrass; [5])
3: B. signalgrass plant response rating (surinam grass; Rate 500 g/ha, Postemergence, scale of 0 to 10 where 0 is no effect and 10 is complete control) | Velvetleaf plant response rating (velvetleaf; [7])
5: Plant response rating, Crabgrass (crabgrass; [4]) | Velvetleaf plant response rating (velvetleaf; [8])
1: Crabgrass plant response rating (crabgrass; [3])
7: Bedstraw plant response rating (bedstraw; [2]) | Bedstraw plant response rating (bedstraw; [8]) | Plant response rating, Giant foxtail (giant foxtail; [4])
6: Crabgrass plant response rating (crabgrass; [8]) | Wild oats plant response rating (wild oat; [8])
0: Bedstraw plant response rating (bedstraw; [1]) | Bedstraw plant response rating (bedstraw; [3]) | Plant response rating, Bedstraw (bedstraw; [4]) | Plant response rating, Bedstraw (bedstraw; [5]) | Bedstraw plant response rating (bedstraw; [6]) | Bedstraw plant response rating (bedstraw; [7]) | Blackgrass plant response rating (blackgrass; [1]) | Blackgrass plant response rating (blackgrass; [2]) | Blackgrass plant response rating (blackgrass; [3]) | Plant response rating, Blackgrass (blackgrass; [4]) | Plant response rating, Blackgrass (blackgrass; [5]) | Blackgrass plant response rating (blackgrass; [6]) | Blackgrass plant response rating (blackgrass; [7]) | B. signalgrass plant response rating (surinam grass; [1]) | B. signalgrass plant response rating (surinam grass; [2]) | B. signalgrass plant response rating (surinam grass; [3]) | Plant response rating, B. signalgrass (surinam grass; [4]) | Plant response rating, B. signalgrass (surinam grass; [5]) | B. signalgrass plant response rating (surinam grass; [6]) | B. signalgrass plant response rating (surinam grass; [7]) | Corn plant response rating (corn; [1]) | Corn plant response rating (corn; [2]) | Corn plant response rating (corn; [3]) | Plant response rating, Corn (corn; [4]) | Plant response rating, Corn (corn; [5]) | Corn plant response rating (corn; [6]) | Corn plant response rating (corn; [7]) | Corn plant response rating (corn; [8]) | Crabgrass plant response rating (crabgrass; [1]) | Crabgrass plant response rating (crabgrass; [7]) | Giant foxtail plant response rating (giant foxtail; [1]) | Giant foxtail plant response rating (giant foxtail; [7]) | Rape plant response rating (rape; [1]) | Rape plant response rating (rape; [2]) | Rape plant response rating (rape; [3]) | Plant response rating, Rape (rape; [4]) | Plant response rating, Rape (rape; [5]) | Rape plant response rating (rape; [6]) | Rape plant response rating (rape; [7]) | Sugarbeets plant response rating (sugar beet; [1]) | Sugarbeets plant response rating (sugar beet; [2]) | Sugarbeets plant response rating (sugar beet; [3]) | Plant response rating, Sugarbeets (sugar beet; [4]) | Plant response rating, Sugarbeets (sugar beet; [5]) | Sugarbeets plant response rating (sugar beet; [6]) | Sugarbeets plant response rating (sugar beet; [7]) | Sugarbeets plant response rating (sugar beet; [8]) | Velvetleaf plant response rating (velvetleaf; [1]) | Velvetleaf plant response rating (velvetleaf; [3]) | Plant response rating, Velvetleaf (velvetleaf; [4]) | Plant response rating, Velvetleaf (velvetleaf; [5]) | Velvetleaf plant response rating (velvetleaf; [6]) | Wheat plant response rating (wheat; [1]) | Wheat plant response rating (wheat; [2]) | Wheat plant response rating (wheat; [3]) | Plant response rating, Wheat (wheat; [4]) | Plant response rating, Wheat (wheat; [5]) | Wheat plant response rating (wheat; [6]) | Wheat plant response rating (wheat; [7]) | Wild oats plant response rating (wild oat; [1]) | Wild oats plant response rating (wild oat; [3]) | Plant response rating, Wild oats (wild oat; [4]) | Plant response rating, Wild oats (wild oat; [5]) | Wild oats plant response rating (wild oat; [6]) | Wild oats plant response rating (wild oat; [7]) | Nutsedge plant response rating (purple nutsedge; [1]) | Nutsedge plant response rating (purple nutsedge; [2]) | Nutsedge plant response rating (purple nutsedge; [3]) | Plant response rating, Nutsedge (purple nutsedge; [4]) | Plant response rating, Nutsedge (purple nutsedge; [5]) | Nutsedge plant response rating (purple nutsedge; [6]) | Nutsedge plant response rating (purple nutsedge; [7]) | Nutsedge plant response rating (purple nutsedge; [8]) | Rice plant response rating (rice; [1]) | Rice plant response rating (rice; [9]) | Rice plant response rating (rice; [10]) | Rice plant response rating (rice; [11]) | S. Flatsedge plant response rating (smallflower flatsedge; [1]) | S. Flatsedge plant response rating (smallflower flatsedge; [9]) | S. Flatsedge plant response rating (smallflower flatsedge; [10]) | S. Flatsedge plant response rating (smallflower flatsedge; [11]) | Ducksalad plant response rating (duck salad; [1]) | Ducksalad plant response rating (duck salad; [9]) | Ducksalad plant response rating (duck salad; [10]) | Ducksalad plant response rating (duck salad; [11]) | Barnyardgrass plant response rating (bamyardgrass; [1]) | Barnyardgrass plant response rating (bamyardgrass; [9]) | Barnyardgrass plant response rating (bamyardgrass; [10]) | Barnyardgrass plant response rating (bamyardgrass; [11])
4: Giant foxtail plant response rating (giant foxtail; [8]) | Velvetleaf plant response rating (velvetleaf; [2])
